The record followed here is patent US9963701B2, “Pharmaceutical composition for treatment of radiation- or drug-resistant cancer comprising HRP-3 inhibitor” (KOREA INSTITUTE OF RADIOLOGICAL & MEDICAL SCIENCES, priority 2013, dated 2018).

“Also recorded” adds a separate entry of the source.

Format in all cases: cell-based, human
One assay deals with IκB, c-Myc, Noxa. The assay is described as follows: Western blot of IκB, c-Myc, Noxa in H1299 cells. As to conditions: siHRP-3-treated H1299 cells. Here is the method:
Specifically, a cell lysate obtained by lysing the scrambled siRNA- or siHRP-3-treated H1299 cells cultured in Example 6-2 was analyzed by Western blot using anti-HRP-3 antibodies, anti-IκB antibodies (Santa Cruz Biotechnology Inc., Santa Cruz, Calif., USA), anti-c-Myc antibodies (Calbiochem, San Diego, Calif., USA) and anti-Noxa antibodies (Calbiochem, San Diego, Calif., USA). Herein, β-actin was used as a loading control (FIG. 9A; left). As control cells, H1299 cells were treated with scrambled siRNA alone.
H1299 cells subjected to the inhibition of HRP-3 expression and radiation were obtained in the same manner as described in Example 6-4, except that radiation alone, was performed as anticancer treatment. The thus obtained H1299 cells were lysed to obtain a cell lysate. The expression levels of IκB, c-Myc and Noxa were measured in the same manner as described in Example 8-1, except that the thus obtained lysate was used, and NF-κB activity was also measured in the same manner as described in Example 8-1 (FIG. 9B). As control cells, H1299 cells treated with scrambled siRNA alone were used.
The thus obtained cells were lysed to obtain a cell lysate. The expression levels of IκB, c-Myc and Noxa were measured by Western blot analysis in the same manner as described in Example 8-1, except that the cell lysate was used. Also, NF-κB activity was measured by a reporter gene assay (FIG. 9C). […]

The test system of the next assay is NF-κB. The assay is described as follows: NF-κB reporter gene assay (pNF-κB-luc) in H1299 cells. As to conditions: siHRP-3-treated H1299 cells, 2 μM BAY 11-7082, 48 hours. As to the method:
In addition, the activity of NF-κB in the scrambled siRNA- or siHRP-3-treated H1299 cells was measured by a reporter gene assay using Dual-Reporter™. Specifically, H1299 cells were transfected with 0.5 μg plasmid DNA (pNF-κB-luc; Stratagene, Cambridge, UK) in Dual-Reporter™, and then the luciferase activity in the cells was measured using a luminometer, and the activity of NF-κB was measured at various protein concentrations (FIG. 9A; right).
In general terms: A reporter such as luciferase makes a cellular process visible.

Assay [1] concerns ROS. The assay is described as follows: ROS production by FACS analysis using DCF-DA in A549 cells. As to conditions: 1 mM NAC, 48 hours. Here is the method:
Thus, it was predicted that HRP-3 would influence ROS production, and the following experiment was performed in order to confirm this prediction. […] The level of ROS produced in the cells was determined by FACS analysis using 10 nM DCF-DA (FIG. 4C).
Further, A549 cells were transfected with 100 nM scrambled siRNA or HRP-3 siRNA without or with exposure to 10 Gy radiation and cultured, and the level of ROS produced in the cells was assessed by FACS analysis using 10 nM DCF-DA (FIG. 4D).
(Flow cytometry measures light scatter and fluorescence of single cells or particles in a stream.)

For assay [2], the system named is p53, pp53, PUMA, cleaved PARP. The assay is described as follows: Western blot of cleaved PARP, p53, pp53, PUMA in A549 cells. Particulars: siHRP-3-transfected A549 cells, 1 mM NAC. From the text:
Additionally, the effect of p53 on the induction of apoptosis was examined. […] Next, the levels of HRP-3, cleaved PARP, p53, pp53, and PUMA proteins produced in the cells were detected by Western blot analysis (FIG. 5D).
For orientation: Immunoblotting shows a protein as a band on a membrane.

The test system of assay [3] is ROS. The assay is described as follows: ROS production by DCF-DA (confocal, FACS) in H1299 cells. Particulars: 3 mM NAC. Here is the method: According to a known method, the thus obtained H1299 cells were treated with 10 nM DCF-DA (2′,7′-dichlorofluorescein diacetate) for 20 minutes, and the produced ROS was detected (M. J. Kim, et al., Cancer Lett, 339:15-24, 2013) (FIG. 8D). The detection of ROS was performed by observing the DCF-DA-stained cells with a laser scanning confocal microscope and analyzing the DCF-DA-stained cells by FACS analysis to determine the production of ROS.

A further assay has as its system A549 cells. The assay is described as follows: Apoptosis by FACS analysis (annexin V / propidium iodide) in A549 cells. Particulars: 0.1 μg/ml doxorubicin or 5 ng/ml vinblastine, 48 hours. As to the method: (§1) Human NSCLC cell lines (A549 and H460) were purchased from the ATCC and cultured in RPMI-1640 medium containing 10% FBS, 50 μg/ml streptomycin, and 50 units/ml penicillin. The cultured cells were irradiated using a ^137Cs-ray source (Atomic Energy of Canada, Ltd., Canada) at a dose rate of 3.81 Gy/min and were treated with 0.1 μg/ml doxorubicin or 5 ng/ml vinblastine. The treated cells were treated with trypsin, washed with PBS, stained with annexin V and propidium iodide, and then analyzed by FACS using a flow cytometer to measure apoptosis (FIG. 1A).
In addition, A549 cells were transfected with 100 nM scrambled siRNA or HRP-3 siRNA and cultured for 2 days. Then, changes in the morphology of the cells were observed under an optical microscope, and the death rate of the cells was measured by FACS analysis (FIG. 2D). Also, the levels of two apoptotic markers (cleaved PARP and active caspase-3) were determined by Western blotting (FIG. 2E).
In order to examine this correlation, the effect of HRP-3 in the A549 cells treated with radiation or the drug was analyzed. Specifically, A549 cells were transfected with 100 nM scrambled siRNA or HRP-3 siRNA, and then treated with 10 Gy radiation, 0.1 μg/ml doxorubicin or 5 ng/ml vinblastine and cultured. The death rate of the cultured cells was determined by FACS analysis (FIG. 3B).

The subject of a further assay is H460 cells. The assay is described as follows: Apoptosis by FACS analysis in H460 cells. As to conditions: 0.1 μg/ml doxorubicin or 5 ng/ml vinblastine, 48 hours. As to the method:
as §1
(§2) Specifically, while each type of H460 cells and H1299 cells were inoculated into a culture dish at a density of 3.5×10^5 cells/cm^2 and cultured in RPMI-1640 medium, each type of cell was radiated with 0 and 10 Gy of ^137Cs-rays, or the cell culture was treated with 0 and 0.1 μg/ml of doxorubicin or 0 and 5 ng/ml of vinblastine (Sigma, St. Louis, Mo., USA) and cultured. Next, the death rate of the cells was determined by FACS analysis according to a known method (M. J. Kim, et al., Cancer Lett, 339:15-24, 2013) (FIG. 7A).

The subject of another assay is H1299 cells. The assay is described as follows: Apoptosis by FACS analysis in H1299 cells. As to conditions: 0.1 μg/ml doxorubicin or 5 ng/ml vinblastine, 48 hours. Here is the method: as §2
The inhibition of HRP-3 expression in H1299 cells was performed according to the method in Example 6-2, and the H1299 cells, which were inhibited of HRP-3 expression, were subjected to anticancer treatment (radiation, doxorubicin treatment or vinblastine treatment), and their apoptotic rate was measured (FIG. 7D).
The morphological change and apoptotic rate of H1299 cells were measured in the same manner as described in Example 6-4, except that radiation alone was performed as anticancer treatment (FIG. 8A).

The test system of a further assay is HRP-3. The assay is described as follows: HRP-3 protein level after radiation or drug treatment in H1299 cells (Western blot). Particulars: 0.1 μg/ml doxorubicin or 5 ng/ml vinblastine. Here is the method: While H1299 cells were cultured in RPMI-1640 medium, the cells were radiated with 10 Gy of ^137Cs-rays, or the cell culture was treated with 0.1 μg/ml doxorubicin or 5 ng/ml vinblastine, and the change in the expression level of HRP-3 as a function of time for a culture time of 48 hours was analyzed by Western blotting or immunofluorescence staining (FIGS. 6D and 6E).

Consider `Cc1ccc(S(=O)(=O)/C=C/C#N)cc1` [BAY 11-7082], for which the “IκB, c-Myc and Noxa expression changes due to inhibition of HRP-3 expression” value in the assay on IκB, c-Myc, Noxa (2 μM BAY 11-7082, 48 hours) is reported as “levels similar to the control cells”. The “increase in NF-κB activity due to inhibition of HRP-3 expression” value in the assay on NF-κB is listed as “levels similar to the control cells”.
On to `CC(=O)N[C@@H](CS)C(=O)O` [NAC, N-acetyl cysteine], for which the “effect on ROS generation induced by inhibition of HRP-3 expression” value with ROS [1] is on record as “reduced; also recorded: inhibited”. Besides, in [2], the “induction of cleaved PARP by HRP-3 deletion” value is recorded as “significantly decreased”; the “p53 and PUMA levels” value is listed as “dramatically decreased”. Moreover, the “ROS production after inhibition of HRP-3 expression and radiation” value with ROS [3] was “decreased to that of control cells”. Further, the “IκB, c-Myc and Noxa expression changes due to inhibition of HRP-3 expression” value in the assay with IκB, c-Myc, Noxa (3 mM NAC, 48 hours) was “levels similar to the control cells”.
As for `COc1cccc2c1C(=O)c1c(O)c3c(c(O)c1C2=O)C[C@@](O)(C(=O)CO)C[C@@H]3O[C@H]1C[C@H](N)[C@H](O)[C@H](C)O1` [doxorubicin], the “resistance of A549 cells compared to H460 cells (apoptosis)” value in the assay on A549 cells is recorded as “higher levels of resistance”. The apoptotic rate entry is “about 39%” in the assay with H460 cells and “about 23%” in the assay with H1299 cells. Also, the “time after treatment at which level of HRP-3 peaked” value with HRP-3 turned out to be 12 h.
With `CC[C@]1(O)C[C@@H]2CN(CCc3c([nH]c4ccccc34)[C@@](C(=O)OC)(c3cc4c(cc3OC)N(C)[C@H]3[C@@](O)(C(=O)OC)[C@H](OC(C)=O)[C@]5(CC)C=CCN6CC[C@]43[C@@H]65)C2)C1` [vinblastine], in the assay on A549 cells, the “resistance of A549 cells compared to H460 cells (apoptosis)” value was “higher levels of resistance”. The apoptotic rate result with H460 cells is listed as “about 43%”; in the assay with H1299 cells, “about 26%”. In addition, the “time after treatment at which level of HRP-3 peaked” value in the assay on HRP-3 stood at 12 h.
